Results reported in US20240336638A1, “IMIDAZOLE COMPOUND, AND INTERMEDIATE AND APPLICATION THEREOF” (priority 2021, published 2024).
Where two headings read alike, the source gives them in different places.

Experiments:
[1] = Blood-brain barrier (BBB) study in SD rats after single IV and PO administration, brain; type: in vivo; settings: for Cmax / Tmax / half-life / MRT last / MRT inf: Sprague-Dawley (SD); for MRT last: read-out: MRT(0−t); for MRT inf: read-out: MRT(0−∞); for T1/2 and AUC(0-∞) in the brain tissue: compared to Ozagrel
Description: Effect Example 3: Pharmacokinetic and blood-brain barrier (BBB) studies of compounds after single intravenous (IV) and oral (PO) administration in SD rats
(§1) The experimental method of administration by gavage injection in rats: SD rats weighing 180 to 220 g were fasted for 12 hours prior to the experiment, with free access to water. After administration, food and water were withheld for 4 hours. After this 4-hour period, the rats were allowed free access to water, and food was provided after 8 hours. The drugs were administered at a set dose. N=3, blood samples were taken before administration, and 5 minutes, 0.25 hours, 0.5 hours, 0.75 hours, 1 hour, 2 hours, 4 hours, 8 hours, and 24 hours after administration, respectively, and placed into sodium heparin anticoagulant tubes. The tubes were centrifuged for 1 hour at 4° C. and at 8000 rpm for 5 minutes, and the plasma was then separated and stored in centrifuge tubes at −70° C. for analysis.
as §1, with “of intravenous” for “of”, “to” for “by gavage injection in”
The plasma concentration-time data were processed using the Phoenix® WinNonlin® 8.0 program to calculate pharmacokinetic parameters.
Among them, Cmax and Tmax are measured values, the elimination rate constant k of the tail section of the C-t curve is obtained from the linear regression of LnC-t, and the value of AUC0-4 is calculated by the trapezoidal area method, and the area under the curve from 0 to ∞ time is AUC=AUC0-4+Ct/k.

[2] = test system: MCAO/R rats; test: Therapeutic administration (i.v.) in middle cerebral artery occlusion/reperfusion (MCAO/R) rats; type: in vivo, rat; settings: for Bleeding time / Brain water content (%) / Cerebral infarction rate (%) / Clotting time / Neurological function score: once a day for 3 days, mean ± SD, n = 8; for Neurological function score: modified Bederson score
Description: Male SD rats weighing 250 to 300 g were taken, and the rats in each group fasted for 12 hours before modeling, while water was not restricted. According to the method of Longa et al.^[1], a rat model of MCAO/R was established by occluding the blood flow of internal carotid artery using the thread embolization method. The rats were anesthetized with 3% chloral hydrate (300 mg/kg, 1 mL/100 g body weight) through intraperitoneal injection and fixed in the supine position on the operating table. A midline incision was made in the neck, and the right common carotid artery was isolated using forceps and threaded for later use. The external and internal carotid arteries were isolated from the bifurcation of the common carotid artery. A single thread was threaded through the internal carotid artery, and two threads were threaded through the external carotid artery. Both distal and proximal ends were ligated, and the middle part of the ligation site was cut using ophthalmic scissors. The proximal main trunk of the external carotid artery was isolated and reserved for later use. The prepared cotton thread was used to half-ligate the common carotid artery (tying a slipknot), and the thread prepared for the internal carotid artery was tightened with hemostatic forceps, temporarily occluding the blood flow of the internal carotid artery. A small incision at the proximal main trunk of the external carotid artery was made using ophthalmic scissors, and then, the fishing line was held with straight forceps, inserted from this incision, and slowly advanced through the isolated proximal main trunk of the external carotid artery towards the intracranial direction of the internal carotid artery. The advancement was stopped at a predetermined position, and then the thread of the internal carotid artery that was tightened with the hemostatic forceps was loosened. […] Another thread was threaded and tightened around the proximal main trunk of the external carotid artery and the fishing line that had already been inserted into the predetermined position. The half-ligated thread on the common carotid artery was then loosened, and the skin was subsequently sutured. After 2 hours of ischemia, a small section of the fishing line was pulled out. […] After rats in the blank control group were anesthetized, only the bifurcation of the internal and external carotid arteries was exposed without the occlusion of the MCA.
Successfully modeled rats (neurological function score of 3 after reperfusion) were taken and divided into 20 groups (8 rats for each) according to the random number table method. The groups were divided into a model control group, three dose groups (high, 12 mg/kg, 2.4 mg/mL; medium, 6 mg/kg, 1.2 mg/mL; low, 3 mg/kg, 0.6 mg/mL) for each of the six test compounds, and a positive drug Ozagrel group (6 mg/kg, 1.2 mg/mL), respectively. Both blank and model control groups were administered equal volumes of mixed solvents, and the rats in each group were administered by tail vein injection (i.v.) 2 hours after reperfusion, once a day for 3 consecutive days, with a volume of 0.5 mL/100 g body weight.
Ten minutes after the last administration, the neurological function of the animals was graded according to the modified Bederson scoring method. The standard is as follows[2]: • 0 point: no neurological symptoms; • 1 point: when the rat is suspended by lifting its tail, the forelimb on the surgical side of the rat was flexed and pressed against the chest wall; • 2 points: on a smooth plane, when the rat is pushed from the surgical side to the opposite side, the resistance is less than when it is moved to the same side; • 3 points: the animal moves around or in circles when moving freely; • 4 points: flaccid paralysis, no spontaneous movement of limbs.
After Bederson scoring, the rats were executed by cervical dislocation, and the whole brain was removed and weighed. After weighing, the whole brain was placed in a −20° C. refrigerator for 20 minutes. […]

[3] = medium dose 6 mg/kg i.v. (Ozagrel group 6 mg/kg)

Compound `O=C(O)[C@@H]1C[C@H]1c1ccc(Cn2ccnc2)c(F)c1` [Compound 15, (1R,2R)-2-(4-((1H-Imidazol-1-yl)methyl)-3-fluorophenyl)cyclopropane-1-carboxylic acid] has a Cmax ([1]; rat brain, IV 1 mg/kg) of 41.2 ng/g, a Tmax ([1]; rat brain, IV 1 mg/kg) of 0.08 h and a half-life ([1]; rat brain, IV 1 mg/kg) of 2.2 h. For the same compound, the MRT last ([1]; rat brain, IV 1 mg/kg) was 0.82 h, the MRT inf ([1]; rat brain, IV 1 mg/kg) was 3.05 h and the Cmax ([1]; rat brain, PO 6 mg/kg) was 199 ng/g. The Tmax ([1]; rat brain, PO 6 mg/kg) was 1 h, the half-life ([1]; rat brain, PO 6 mg/kg) was 1.7 h and the MRT last ([1]; rat brain, PO 6 mg/kg) was 2.56 h. The MRT inf ([1]; rat brain, PO 6 mg/kg) was 2.91 h, the “T1/2 and AUC(0-∞) in the brain tissue” value ([1]; intravenously at 1 mg/kg) was “significantly increased” and the “T1/2 and AUC(0-∞) in the brain tissue” value ([1]; orally at 6 mg/kg) was “significantly increased”. For the same compound, the “AUC(0−t)” value ([1]; rat brain, IV 1 mg/kg) was 33.91 ng·h/g, the “AUC(0−∞)” value ([1]; rat brain, IV 1 mg/kg) was 69.74 ng·h/g and the “AUC(0−t)” value ([1]; rat brain, PO 6 mg/kg) was 815.87 ng·h/g. For the same compound, the “AUC(0−∞)” value ([1]; rat brain, PO 6 mg/kg) was 853.63 ng·h/g, the “Bleeding time” value ([2]; high dose 12 mg/kg i.v.) was 289.63 ± 60.00 s and the “Brain water content (%)” value ([2]; high dose 12 mg/kg i.v.) was 80.84 ± 1.40%. For the same compound, the “Cerebral infarction rate (%)” value ([2]; high dose 12 mg/kg i.v.) was 15.57%, the “Clotting time” value ([2]; high dose 12 mg/kg i.v.) was 163.13 ± 20.06 s and the Neurological function score ([2]; high dose 12 mg/kg i.v.) was 1.50 ± 0.53. The “Bleeding time” value ([2]; low dose 3 mg/kg i.v.) was 281.38 ± 61.33 s, the “Brain water content (%)” value ([2]; low dose 3 mg/kg i.v.) was 81.71 ± 1.64% and the “Cerebral infarction rate (%)” value ([2]; low dose 3 mg/kg i.v.) was 29.98 ± 5.52%. The “Clotting time” value ([2]; low dose 3 mg/kg i.v.) was 155.38 ± 41.85 s, the Neurological function score ([2]; low dose 3 mg/kg i.v.) was 2.38 ± 0.74 and the “Bleeding time” value [2, 3] was 304.88 ± 43.01 s. The “Brain water content (%)” value [2, 3] was 81.19 ± 1.32%, the “Cerebral infarction rate (%)” value [2, 3] was 21.57% and the “Clotting time” value [2, 3] was 156.50 ± 31.15 s. It also gave a Neurological function score [2, 3] of 1.75 ± 0.71.

`O=C(O)[C@@H]1C[C@H]1c1ccc(Cn2cnc(Cl)c2)c(Cl)c1` [Compound 11, (1R,2R)-2-(3-Chloro-4-((4-chloro-1H-imidazol-1-yl)methyl)phenyl)cyclopropane-1-carboxylic acid] gave a Cmax ([1]; rat brain, IV 1 mg/kg) of 57.5 ng/g, a Tmax ([1]; rat brain, IV 1 mg/kg) of 1 h and a half-life ([1]; rat brain, IV 1 mg/kg) of 19.5 h. It also gave an MRT last ([1]; rat brain, IV 1 mg/kg) of 9.49 h, an MRT inf ([1]; rat brain, IV 1 mg/kg) of 27.4 h and a Cmax ([1]; rat brain, PO 6 mg/kg) of 385 ng/g. It also gave a Tmax ([1]; rat brain, PO 6 mg/kg) of 4 h, a half-life ([1]; rat brain, PO 6 mg/kg) of 19.7 h and an MRT last ([1]; rat brain, PO 6 mg/kg) of 9.94 h. The MRT inf ([1]; rat brain, PO 6 mg/kg) was 28.5 h, the “T1/2 and AUC(0-∞) in the brain tissue” value ([1]; intravenously at 1 mg/kg) was “significantly increased” and the “T1/2 and AUC(0-∞) in the brain tissue” value ([1]; orally at 6 mg/kg) was “significantly increased”. For the same compound, the “AUC(0−t)” value ([1]; rat brain, IV 1 mg/kg) was 855.25 ng·h/g, the “AUC(0−∞)” value ([1]; rat brain, IV 1 mg/kg) was 1475.23 ng·h/g and the “AUC(0−t)” value ([1]; rat brain, PO 6 mg/kg) was 7014.55 ng·h/g. The “AUC(0−∞) (h*ng/g)” value ([1]; rat brain, PO 6 mg/kg) was 12,439.74 h*ng/g, the “neurological deficits in rats” value ([2]; high dose) was “can significantly reduce” and the “Bleeding time” value ([2]; high dose 12 mg/kg i.v.) was 319.25 ± 49.38 s. The “Brain water content (%)” value ([2]; high dose 12 mg/kg i.v.) was 80.58 ± 0.77%, the “Cerebral infarction rate (%)” value ([2]; high dose 12 mg/kg i.v.) was 13.53% and the “Clotting time” value ([2]; high dose 12 mg/kg i.v.) was 152.81 ± 29.69 s. For the same compound, the Neurological function score ([2]; high dose 12 mg/kg i.v.) was 1.25 ± 0.46, the “improving the neurological function scores of the rats” value ([2]; high dose, comparison among test drugs) was “more advantageous” and the “reducing the infarct area (smallest mean infarct rate)” value ([2]; high doses, comparison among test drugs) was “more advantageous”. The “cerebral edema in rats” value ([2]; low dose) was “did not significantly improve”, the “Bleeding time” value ([2]; low dose 3 mg/kg i.v.) was 307.63 ± 64.59 s and the “Brain water content (%)” value ([2]; low dose 3 mg/kg i.v.) was 82.04 ± 1.91 %. For the same compound, the “Cerebral infarction rate (%)” value ([2]; low dose 3 mg/kg i.v.) was 28.07 ± 4.88%, the “Clotting time” value ([2]; low dose 3 mg/kg i.v.) was 138.38 ± 27.34 s and the Neurological function score ([2]; low dose 3 mg/kg i.v.) was 2.25 ± 0.46. The “Bleeding time” value [2, 3] was 279.75 ± 37.97 s, the “Brain water content (%)” value [2, 3] was 80.33 ± 1.65% and the “Cerebral infarction rate (%)” value [2, 3] was 19.96%. For the same compound, the “Clotting time” value [2, 3] was 136.63 ± 9.80 s and the Neurological function score [2, 3] was 2.00 ± 0.53.
